The source of these data is ChEMBL document CHEMBL4393673, “Design, synthesis and biological evaluation of pyridine-chalcone derivatives as novel microtubule-destabilizing agents” (Eur J Med Chem, 2019).

Data set [1] has as its system H22. As to the kind of experiment: Antitumor activity against mouse H22 cells allografted in ICR mouse assessed as reduction in tumour weight at 20 mg/kg, iv administered once per day for 21 days relative to control. Type of data set: functional. The settings on record: 504 h.
The next data set concerns K562. The data set is described as follows: Antiproliferative activity against human K562 cells assessed as reduction in cell viability after 72 hrs by MTT assay. Type of data set: functional, cell-based. The settings on record: K562, 72 h.
Data set [2] in a line: Antiproliferative activity against […] cells assessed as reduction in cell viability after 72 hrs by MTT assay. The settings on record: H22, 72 h. Type of data set: functional, cell-based.
For another data set, the target named is Tubulin. The data set is described as follows: Inhibition of tubulin polymerization (unknown origin) in presence of GTP measured after 60 mins by spectrophotometric method. Type of data set: protein-complex assay, Homo sapiens.
The target in data set [3] is T1, Tubulin (Sus scrofa) (UniProt P02554+P02550). As to the kind of experiment: Inhibition of [3H]colchicine binding to biotinylated porcine tubulin at 1 uM in presence of GTP after 2 hrs by scintillation proximity assay relative to control. Format: protein assay.
The target in data set [4] is T1, Tubulin (Sus scrofa). The data set is described as follows: Inhibition of [3H]colchicine binding to biotinylated porcine tubulin at 5 uM in presence of GTP after 2 hrs by scintillation proximity assay relative to control. Format: protein assay.
Another data set deals with L02. The data set is described as follows: cells. The following applies: Homo sapiens, L02, 72 h.
The test system of the next data set is KB. As to the kind of experiment: Antiproliferative activity against human KB cells assessed as reduction in cell viability after 72 hrs by MTT assay. Format: functional, cell-based.
For a further data set, the system named is HCT-8. As to the kind of experiment: Antiproliferative activity against human HCT8 cells assessed as reduction in cell viability after 72 hrs by MTT assay. The following applies: HCT-8, 72 h. Type of data set: functional, cell-based.
A further data set concerns MDA-MB-231. As to the kind of experiment: cells. The following applies: Homo sapiens, MDA-MB-231, 72 h.
The target in data set [5] is T2, Tubulin (Homo sapiens) (UniProt P68371+Q9H4B7+P0DPH7+P68366+Q13509+Q71U36+P04350+Q3ZCM7+P07437+P68363+Q9BQE3+Q6PEY2+Q13885+Q9BVA1+Q9BUF5). The data set is described as follows: Inhibition of tubulin polymerization in human K562 cells assessed as disruption of cytosolic microtubule networks after 24 hrs by DAPI staining based immunofluorescence microscopic method. Type of data set: cell-based.

Data set [6] concerns the target T2, Tubulin (Homo sapiens). The data set is described as follows: Inhibition of tubulin polymerization in human MDA-MB-231 cells assessed as disruption of cytosolic microtubule networks after 24 hrs by DAPI staining based immunofluorescence microscopic method. Type of data set: cell-based.
Data set [7] deals with H22. The data set is described as follows: Antitumor activity against mouse H22 cells allografted in ICR mouse assessed as reduction in tumour weight at 6 mg/kg, iv administered once per 2 days for 21 days relative to control. Format: functional.
The nature of data set [8]: Toxicity in ICR mouse allografted with mouse H22 cells assessed as body weight loss at 6 mg/kg, iv administered once per 2 days for 21 days. Format: organism-based. The following applies: in vivo.

T1 sequence (P02550 whole entry, looked up): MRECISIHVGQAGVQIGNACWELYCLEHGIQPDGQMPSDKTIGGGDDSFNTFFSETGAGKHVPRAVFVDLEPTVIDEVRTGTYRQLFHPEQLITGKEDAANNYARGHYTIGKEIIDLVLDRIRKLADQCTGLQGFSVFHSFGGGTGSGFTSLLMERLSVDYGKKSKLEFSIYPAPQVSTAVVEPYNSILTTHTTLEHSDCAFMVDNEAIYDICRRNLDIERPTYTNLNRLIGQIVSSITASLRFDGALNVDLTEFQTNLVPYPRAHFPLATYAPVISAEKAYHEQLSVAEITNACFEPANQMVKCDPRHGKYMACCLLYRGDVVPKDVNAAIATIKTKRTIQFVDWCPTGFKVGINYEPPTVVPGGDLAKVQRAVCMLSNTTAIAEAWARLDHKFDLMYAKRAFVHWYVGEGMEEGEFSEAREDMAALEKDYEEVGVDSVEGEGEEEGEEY
T1 sequence (P02554 whole entry, looked up): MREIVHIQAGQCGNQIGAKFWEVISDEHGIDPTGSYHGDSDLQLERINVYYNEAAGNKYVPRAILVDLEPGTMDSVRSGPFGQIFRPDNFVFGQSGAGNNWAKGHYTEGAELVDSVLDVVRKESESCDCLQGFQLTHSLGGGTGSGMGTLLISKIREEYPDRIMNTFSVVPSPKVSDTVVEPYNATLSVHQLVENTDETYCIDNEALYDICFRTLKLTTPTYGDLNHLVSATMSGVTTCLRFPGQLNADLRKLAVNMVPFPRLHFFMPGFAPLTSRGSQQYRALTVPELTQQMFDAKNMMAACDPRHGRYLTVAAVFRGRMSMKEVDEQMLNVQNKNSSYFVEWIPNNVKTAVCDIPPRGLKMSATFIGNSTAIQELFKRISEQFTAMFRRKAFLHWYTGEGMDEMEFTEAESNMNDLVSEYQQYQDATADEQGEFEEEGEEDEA
Description for L02: Cytotoxicity against human LO2 cells assessed as reduction in cell viability after 72 hrs by MTT assay
Description for MDA-MB-231: Antiproliferative activity against human MDA-MB-231 cells assessed as reduction in cell viability after 72 hrs by MTT assay

The inhibition in vivo is how much of the control response was suppressed. Regarding `COc1ccc(/C=C\c2cc(OC)c(OC)c(OC)c2)cc1OP(=O)(O)O` [FOSBRETABULIN DISODIUM], in the data set with H22 [1], the inhibition in vivo at 20 mg/kg was found to be 62.7%.

As usually defined, the IC50 is the concentration that inhibits the measured activity by half. Broadly, the inhibition is the drop in the measured response relative to a control, in per cent. On to `COc1ccc(/C=C/C(=O)c2cc(OC)c(OC)c(OC)c2)cc1O`, for which the IC50 was 68 nM in the data set on K562, 132 nM in data set [2], 3050 nM at Tubulin and 421 nM in the data set on L02. Also, the inhibition was found to be 70.2% at Tubulin (Sus scrofa) [3] and 78.3% on Tubulin (Sus scrofa) [4].

Consider `COc1ccc(/C=C\c2cc(OC)c(OC)c(OC)c2)cc1O` [COMBRETASTATIN A4], for which the IC50 in the data set on KB amounted to 11 nM; with HCT-8, 10 nM; in data set [2] it was 8 nM; in the data set on MDA-MB-231, 10 nM. Besides, the inhibition in vivo at 20 mg/kg in the data set with H22 [1] turned out to be 50.9%.

For `COc1cc(C(=O)/C(C)=C/c2ccc(OC)c(O)c2)cc(OC)n1`, on Tubulin, the IC50 was determined as 2080 nM. Besides, the inhibition at Tubulin (Sus scrofa) [3] stood at 75.1%; at Tubulin (Sus scrofa) [4] it was 87.9%. Also, the Activity entry on Tubulin (Homo sapiens) [5] and at Tubulin (Homo sapiens) [6] was “Dose-dependent effect” throughout.

Regarding `CC(=O)O[C@H]1C(=O)[C@@]2(C)[C@H]([C@H](OC(=O)c3ccccc3)[C@]3(O)C[C@H](OC(=O)[C@H](O)[C@@H](NC(=O)c4ccccc4)c4ccccc4)C(C)=C1C3(C)C)[C@]1(OC(C)=O)CO[C@@H]1C[C@@H]2O` [PACLITAXEL], the inhibition in vivo at 6 mg/kg in the data set with H22 [7] came out at 72.7%. Further, the Activity entry in [8] is “Toxic”.
